Source: patent US10100058B2, “Fused heterocyclic compounds as CaM kinase inhibitors” (Gilead Sciences, Inc., priority 2016, dated 2018)

Target: recombinant CaMKIIδ (Homo sapiens (Human), UniProt Q13557)
Assay: CaMKIIδ biochemical assay (HTRF)
Conditions: 10 pM CaMKIIδ, 110 nM calmodulin, 12 μM ATP, 1 hour; read-out: CAMKIID-HTRF-384V2 (IC50 - nM)
Protocol: CaMKIIδ Biochemical Assay
The biochemical activity of recombinant CaMKIIδ was measured by monitoring the phosphorylation of a target peptide using Homogenous Time Resolved Fluorescence (HTRF) technology from CisBio Bioassays.

| SMILES | IC50 [nM] |
| --- | --- |
| CCN(CC)[C@@H](C)CNC(=O)c1cc(-c2cnn(C3COC3)c2)nc(-c2cnn3ccc(-c4cccs4)nc23)c1 [Example 342, (S)—N-(2-(diethylamino)propyl)-2-(1-(oxetan-3-yl)-1H-pyrazol-4-yl)-6-(5-(thiophen-2-yl)pyrazolo[1,5-a]pyrimidin-3-yl)isonicotinamide] | 0.13 |
| CN(C)c1cc(C(=O)N2CCCC[C@H]2CN)cc(-c2cnn3ccc(-c4ccccc4)nc23)n1 [Example 135, (S)-(2-(aminomethyl)piperidin-1-yl)(2-(dimethylamino)-6-(5-phenylpyrazolo[1,5-a]pyrimidin-3-yl)pyridin-4-yl)methanone] | 761 |
| CCN(CC)[C@@H](C)CNC(=O)c1cc(OC[C@H](C)OC)nc(-c2cnn3ccc(-c4cccs4)nc23)c1 [Example 344, N—((S)-2-(diethylamino)propyl)-2-((S)-2-methoxypropoxy)-6-(5-(thiophen-2-yl)pyrazolo[1,5-a]pyrimidin-3-yl)isonicotinamide] | 0.56 |
| CCN(CC)[C@@H](C)CNC(=O)c1cc(NS(=O)(=O)CC)nc(-c2cnn3ccc(-c4cccs4)nc23)c1 [Example 179, (S)—N-(2-(diethylamino)propyl)-2-(ethylsulfonamido)-6-(5-(thiophen-2-yl)pyrazolo[1,5-a]pyrimidin-3-yl)isonicotinamide] | 0.72 |
| CCN(CC)[C@@H](C)CNC(=O)c1cc(NS(=O)(=O)C(C)C)nc(-c2cnn3ccc(-c4cccs4)nc23)c1 [Example 178, (S)—N-(2-(diethylamino)propyl)-2-((1-methylethyl)sulfonamido)-6-(5-(thiophen-2-yl)pyrazolo[1,5-a]pyrimidin-3-yl)isonicotinamide] | 1.25 |
| CCN(CC)[C@@H](C)CNC(=O)c1ccnc(-c2cnn3ccc(-c4ccccc4)nc23)c1 [Example 38, (S)—N-(2-(diethylamino)propyl)-2-(5-phenylpyrazolo[1,5-a]pyrimidin-3-yl)isonicotinamide] | 2.08 |
| CCC(=O)Nc1cc(C(=O)NC[C@H](C)N(CC)CC)cc(-c2cnn3ccc(-c4cccs4)nc23)n1 [Example 188, (S)—N-(2-(diethylamino)propyl)-2-propionamido-6-(5-(thiophen-2-yl)pyrazolo[1,5-a]pyrimidin-3-yl)isonicotinamide] | 0.43 |
| O=C(NC[C@@H]1CCCN1)c1ccnc(-c2cnn3ccc(-c4cccs4)nc23)c1 [Example 34, (S)—N-(pyrrolidin-2-ylmethyl)-2-(5-(thiophen-2-yl)pyrazolo[1,5-a]pyrimidin-3-yl)isonicotinamide] | 12.4 |
| CCN(CC)[C@@H](CO)CNC(=O)c1cc(-c2cnn3ccc(-c4cccs4)nc23)nc(N2CC[C@H]2C(=O)NC)c1 [Example 359, N—((R)-2-(diethylamino)-3-hydroxypropyl)-2-((S)-2-(methylcarbamoyl)azetidin-1-yl)-6-(5-(thiophen-2-yl)pyrazolo[1,5-a]pyrimidin-3-yl)isonicotinamide] | 0.35 |
| CCN(CC)[C@@H](C)CNC(=O)c1cc(N[C@H](C)C(N)=O)nc(-c2cnn3ccc(-c4cccs4)nc23)c1 [Example 235, 2-(((R)-1-amino-1-oxopropan-2-yl)amino)-N—((S)-2-(diethylamino)propyl)-6-(5-(thiophen-2-yl)pyrazolo[1,5-a]pyrimidin-3-yl)isonicotinamide] | 1.83 |
| CCN(CC)[C@@H](C)CNC(=O)c1cc(-c2c[nH]nc2C)nc(-c2cnn3ccc(-c4cccs4)nc23)c1 [Example 333, (S)—N-(2-(diethylamino)propyl)-2-(3-methyl-1H-pyrazol-4-yl)-6-(5-(thiophen-2-yl)pyrazolo[1,5-a]pyrimidin-3-yl)isonicotinamide] | 0.22 |
| CCN(CC)[C@@H](C)CNC(=O)c1cc(NC(=O)C(C)C)nc(-c2cnn3ccc(-c4cccs4)nc23)c1 [Example 189, (S)—N-(2-(diethylamino)propyl)-2-isobutyramido-6-(5-(thiophen-2-yl)pyrazolo[1,5-a]pyrimidin-3-yl)isonicotinamide] | 0.45 |
| Cc1cnc(-c2cnn3ccc(-c4ccccc4)nc23)cc1C(=O)N1CCCC[C@@H]1[C@@H](C)N [Example 140, ((R)-2-((R)-1-aminoethyl)piperidin-1-yl)(5-methyl-2-(5-phenylpyrazolo[1,5-a]pyrimidin-3-yl)pyridin-4-yl)methanone] | 1.91 |
| Nc1cc(C(=O)N2C3CCNCC2CC3)cc(-c2cnn3ccc(-c4ccccc4)nc23)n1 (stereo not drawn) [Example 128, (2-amino-6-(5-phenylpyrazolo[1,5-a]pyrimidin-3-yl)pyridin-4-yl)(-3,9-diazabicyclo[4.2.1]nonan-9-yl)methanone] | 27.8 |
| CCN(CC)[C@@H](C)CNC(=O)c1cc(-c2cnn3ccc(-c4cccs4)nc23)nc(N2CC[C@H]2C(=O)NCCOC)c1 [Example 301, N—((S)-2-(diethylamino)propyl)-2-((S)-2-((2-methoxyethyl)carbamoyl)azetidin-1-yl)-6-(5-(thiophen-2-yl)pyrazolo[1,5-a]pyrimidin-3-yl)isonicotinamide] | 0.48 |
| O=C(c1ccnc(-c2cnn3ccc(-c4ccccc4)nc23)c1)N1C[C@H]2CC[C@@H](C1)N2 [Example 100, ((1R,5S)-3,8-diazabicyclo[3.2.1]octan-3-yl)(2-(5-phenylpyrazolo[1,5-a]pyrimidin-3-yl)pyridin-4-yl)methanone] | 29.8 |

Continued, values first:

| IC50 [nM] | SMILES |
| --- | --- |
| 1.16 | CCN(CC)[C@@H](C)CNC(=O)c1cc(-c2cnn3ccc(-c4cccs4)nc23)nc(N2CCNC2=O)c1 [Example 184, (S)—N-(2-(diethylamino)propyl)-2-(2-oxoimidazolidin-1-yl)-6-(5-(thiophen-2-yl)pyrazolo[1,5-a]pyrimidin-3-yl)isonicotinamide] |
| 0.21 | CCN(CC)[C@@H](C)CNC(=O)c1cc(-c2cnn3ccc(-c4cccs4)nc23)nc(N2CC(F)(F)C2)c1 [Example 148, (S)—N-(2-(diethylamino)propyl)-2-(3,3-difluoroazetidin-1-yl)-6-(5-(thiophen-2-yl)pyrazolo[1,5-a]pyrimidin-3-yl)isonicotinamide] |
| 0.22 | CCN(CC)[C@@H](C)CNC(=O)c1cc(-c2cnn3ccc(-c4cccs4)nc23)nc(N2CC(C(C)(C)O)C2)c1 [Example 215, (S)—N-(2-(diethylamino)propyl)-2-(3-(2-hydroxypropan-2-yl)azetidin-1-yl)-6-(5-(thiophen-2-yl)pyrazolo[1,5-a]pyrimidin-3-yl)isonicotinamide] |
| 0.16 | CCN(CC)[C@@H](C)CNC(=O)c1cc(NC(=O)C2CC2)nc(-c2cnn3ccc(-c4cccs4)nc23)c1 [Example 190, (S)-2-(cyclopropanecarboxamido)-N-(2-(diethylamino)propyl)-6-(5-(thiophen-2-yl)pyrazolo[1,5-a]pyrimidin-3-yl)isonicotinamide] |
| 0.21 | CCN(CC)[C@@H](C)CNC(=O)c1cc(-c2cnn3ccc(-c4cccs4)nc23)nc(N2CC[C@@H](C#N)C2)c1 [Example 312, 2-((R)-3-cyanopyrrolidin-1-yl)-N—((S)-2-(diethylamino)propyl)-6-(5-(thiophen-2-yl)pyrazolo[1,5-a]pyrimidin-3-yl)isonicotinamide] |
| 0.18 | CCN(CC)[C@@H](C)CNC(=O)c1cc(-c2cnn3ccc(-c4cccs4)nc23)nc(N2CCC3(COC3)C2)c1 [Example 233, (S)—N-(2-(diethylamino)propyl)-2-(2-oxa-6-azaspiro[3.4]octan-6-yl)-6-(5-(thiophen-2-yl)pyrazolo[1,5-a]pyrimidin-3-yl)isonicotinamide] |
| 0.42 | CCN(CC)[C@@H](C)CNC(=O)c1cc(-c2cnn3ccc(-c4cccs4)nc23)nc(N2CC[C@H]2COC)c1 [Example 265, N—((S)-2-(diethylamino)propyl)-2-((S)-2-(methoxymethyl)azetidin-1-yl)-6-(5-(thiophen-2-yl)pyrazolo[1,5-a]pyrimidin-3-yl)isonicotinamide] |
| 0.34 | CCN(CC)[C@@H](C)CNC(=O)c1cc(-c2cnn3ccc(-c4cccs4)nc23)nc(N2CC(C(F)(F)F)C2)c1 [Example 147, (S)—N-(2-(diethylamino)propyl)-2-(5-(thiophen-2-yl)pyrazolo[1,5-a]pyrimidin-3-yl)-6-(3-(trifluoromethyl)azetidin-1-yl)isonicotinamide] |
